Read-outs that look alike come from different tables or passages of the source. *1 amine or outer side, *2 acyl side, *3 side chain or, on linkers, in order; H or OH if unused. Where a SMILES comes first, the peptide text is derived from it. Bridges are numbered along the chain shown (N, C = ends). Roman numbers before positions name the chains, in order. [ ]: non-standard residue; d: D form. Actinocin(9to1) = Cc1c2oc3c(C)ccc(C(=O)[*:1])c3nc-2c(C(=O)[*:2])c(N)c1=O; NMeV = CN[C@H](C(=O)O)C(C)C; Sar = CNCC(=O)O

Series [1] has as its target T1, DDR2-His (Homo sapiens, UniProt Q16832).
T1 sequence (Q16832 22-398): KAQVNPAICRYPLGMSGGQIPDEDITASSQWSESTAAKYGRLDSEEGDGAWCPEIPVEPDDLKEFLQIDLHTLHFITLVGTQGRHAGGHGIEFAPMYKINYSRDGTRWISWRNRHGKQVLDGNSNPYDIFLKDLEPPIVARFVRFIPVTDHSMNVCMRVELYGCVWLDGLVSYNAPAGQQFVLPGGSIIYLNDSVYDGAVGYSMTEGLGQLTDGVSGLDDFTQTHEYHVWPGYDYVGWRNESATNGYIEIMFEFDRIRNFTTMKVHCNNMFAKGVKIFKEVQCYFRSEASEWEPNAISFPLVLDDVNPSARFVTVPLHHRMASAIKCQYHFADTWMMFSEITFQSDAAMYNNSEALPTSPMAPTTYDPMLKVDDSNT
Briefly: Solid-phase binding assay of DDR2-His. The settings on record: 25 nM DDR2-His, collagen peptide.

The conditions of series [2]: cited from earlier work.
Series [3] has as its system DDR2. The note with it: cited from earlier work.
Series [4] concerns 4T1 GFP/luc cells. Briefly: Lung colonization after tail vein injection of 4T1 GFP/luc cells in BALB/cJ mice. Type of series: in vivo, mouse. The note with it: treated daily, 7 d.
Series [5] deals with the molecule itself. Briefly: SEC. In general terms: Size exclusion chromatography separates by hydrodynamic size, large species first.
Series [6] concerns the molecule itself.
Series [7] concerns the molecule itself. The experiment in a line: cross-linking.

As to `Cc1c2oc3c(C)ccc(C(=O)N[C@@H]4C(=O)N[C@H](C(C)C)C(=O)N5CCC[C@H]5C(=O)N(C)CC(=O)N(C)[C@@H](C(C)C)C(=O)O[C@@H]4C)c3nc-2c(C(=O)N[C@@H]2C(=O)N[C@H](C(C)C)C(=O)N3CCC[C@H]3C(=O)N(C)CC(=O)N(C)[C@@H](C(C)C)C(=O)O[C@@H]2C)c(N)c1=O` [actinomycin D] (I: T[dV]P[Sar][NMeV] / II: T[dV]P[Sar][NMeV]; ester I:1-I:C, II:1-II:C; linker I:N-II:N via Actinocin(9to1)), the “DDR2 inhibition in ECD solid-phase binding assay (in words)” value in series [1] is recorded as “inhibits DDR2”. Moreover, the toxicity profile entry in series [2] is listed as “high toxicity profile”. Besides, the “DDR2 inhibition in previous in vitro screen” value in series [3] was “weak inhibitor”.

Take `Nc1c(C(=O)O)c2nc3c(C(=O)O)cccc3oc-2cc1=O` [cinnabarinic acid]: the “DDR2 inhibition in ECD solid-phase binding assay (in words)” value in series [1] was “inactive”. The “lung colonization by 4T1 GFP/luc cells” value in series [4] is recorded as “no effect”.

B1: DDR2 F96A/T98A double mutant ECD, His-tagged (domain or fragment, UniProt Q16832 22-399, looked up)
chain: KAQVNPAICRYPLGMSGGQIPDEDITASSQWSESTAAKYGRLDSEEGDGAWCPEIPVEPDDLKEFLQIDLHTLHAIALVGTQGRHAGGHGIEFAPMYKINYSRDGTRWISWRNRHGKQVLDGNSNPYDIFLKDLEPPIVARFVRFIPVTDHSMNVCMRVELYGCVWLDGLVSYNAPAGQQFVLPGGSIIYLNDSVYDGAVGYSMTEGLGQLTDGVSGLDDFTQTHEYHVWPGYDYVGWRNESATNGYIEIMFEFDRIRNFTTMKVHCNNMFAKGVKIFKEVQCYFRSEASEWEPNAISFPLVLDDVNPSARFVTVPLHHRMASAIKCQYHFADTWMMFSEITFQSDAAMYNNSEALPTSPMAPTTYDPMLKVDDSNTR
For the molecule B1, the “stoichiometry N” value in series [5] came out at 2.

B2: DDR2 F96A/T98A expressed as a full-length receptor in HEK293 cells (receptor, UniProt Q16832 22-855, looked up)
chain: KAQVNPAICRYPLGMSGGQIPDEDITASSQWSESTAAKYGRLDSEEGDGAWCPEIPVEPDDLKEFLQIDLHTLHAIALVGTQGRHAGGHGIEFAPMYKINYSRDGTRWISWRNRHGKQVLDGNSNPYDIFLKDLEPPIVARFVRFIPVTDHSMNVCMRVELYGCVWLDGLVSYNAPAGQQFVLPGGSIIYLNDSVYDGAVGYSMTEGLGQLTDGVSGLDDFTQTHEYHVWPGYDYVGWRNESATNGYIEIMFEFDRIRNFTTMKVHCNNMFAKGVKIFKEVQCYFRSEASEWEPNAISFPLVLDDVNPSARFVTVPLHHRMASAIKCQYHFADTWMMFSEITFQSDAAMYNNSEALPTSPMAPTTYDPMLKVDDSNTRILIGCLVAIIFILLAIIVIILWRQFWQKMLEKASRRMLDDEMTVSLSLPSDSSMFNNNRSSSPSEQGSNSTYDRIFPLRPDYQEPSRLIRKLPEFAPGEEESGCSGVVKPVQPSGPEGVPHYAEADIVNLQGVTGGNTYSVPAVTMDLLSGKDVAVEEFPRKLLTFKEKLGEGQFGEVHLCEVEGMEKFKDKDFALDVSANQPVLVAVKMLRADANKNARNDFLKEIKIMSRLKDPNIIHLLAVCITDDPLCMITEYMENGDLNQFLSRHEPPNSSSSDVRTVSYTNLKFMATQIASGMKYLSSLNFVHRDLATRNCLVGKNYTIKIADFGMSRNLYSGDYYRIQGRAVLPIRWMSWESILLGKFTTASDVWAFGVTLWETFTFCQEQPYSQLSDEQVIENTGEFFRDQGRQTYLPQPAICPDSVYKLMLSCWRRDTKNRPSFQEIHLLLLQQGDE
B2: the “stoichiometry N” value in series [6] is 2.

B3: full-length DDR2 expressed in HEK293 cells (receptor, UniProt Q16832 22-855, looked up)
chain: KAQVNPAICRYPLGMSGGQIPDEDITASSQWSESTAAKYGRLDSEEGDGAWCPEIPVEPDDLKEFLQIDLHTLHFITLVGTQGRHAGGHGIEFAPMYKINYSRDGTRWISWRNRHGKQVLDGNSNPYDIFLKDLEPPIVARFVRFIPVTDHSMNVCMRVELYGCVWLDGLVSYNAPAGQQFVLPGGSIIYLNDSVYDGAVGYSMTEGLGQLTDGVSGLDDFTQTHEYHVWPGYDYVGWRNESATNGYIEIMFEFDRIRNFTTMKVHCNNMFAKGVKIFKEVQCYFRSEASEWEPNAISFPLVLDDVNPSARFVTVPLHHRMASAIKCQYHFADTWMMFSEITFQSDAAMYNNSEALPTSPMAPTTYDPMLKVDDSNTRILIGCLVAIIFILLAIIVIILWRQFWQKMLEKASRRMLDDEMTVSLSLPSDSSMFNNNRSSSPSEQGSNSTYDRIFPLRPDYQEPSRLIRKLPEFAPGEEESGCSGVVKPVQPSGPEGVPHYAEADIVNLQGVTGGNTYSVPAVTMDLLSGKDVAVEEFPRKLLTFKEKLGEGQFGEVHLCEVEGMEKFKDKDFALDVSANQPVLVAVKMLRADANKNARNDFLKEIKIMSRLKDPNIIHLLAVCITDDPLCMITEYMENGDLNQFLSRHEPPNSSSSDVRTVSYTNLKFMATQIASGMKYLSSLNFVHRDLATRNCLVGKNYTIKIADFGMSRNLYSGDYYRIQGRAVLPIRWMSWESILLGKFTTASDVWAFGVTLWETFTFCQEQPYSQLSDEQVIENTGEFFRDQGRQTYLPQPAICPDSVYKLMLSCWRRDTKNRPSFQEIHLLLLQQGDE
In the case of B3, in series [7], the “stoichiometry N” value stood at 2.

One may read the stoichiometry N as a count of units in the complex or per binding partner.
